Tested on: 677734-321-R-J1-PDC complex spheroid viability
Assay: Anticancer human tumor 677734-321-R-J1-PDC patient-derived soft tissue sarcoma cell line growth inhibition [POLQ]
Conditions: for IC50: curve of first compound; for viability, T/C: stronger effect = lower value
Method in brief: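 PDC + HUVEC + MSC complex spheroids; POLQ inhibitors ± partner drugs; top conc. at/near clinical Cmax, else 10 microM (SN-38 1 microM), half-log dilutions; 37 degrees C, 5% CO2.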

[1] = second compound 0.0316 µM, first compound 0.0316 µM
[2] = second compound 0.0316 µM, first compound 0.1 µM
[3] = second compound 0.0316 µM, first compound 0.316 µM
[4] = second compound 0.0316 µM, first compound 1 µM
[5] = second compound 0.0316 µM, first compound 3.16 µM
[6] = second compound 0.0316 µM, first compound 10 µM
[7] = second compound 0.1 µM, first compound 0.0316 µM
[8] = second compound 0.1 µM, first compound 0.1 µM
[9] = second compound 0.1 µM, first compound 0.316 µM
[10] = second compound 0.1 µM, first compound 1 µM
[11] = second compound 0.1 µM, first compound 3.16 µM
[12] = second compound 0.1 µM, first compound 10 µM
[13] = second compound 0.316 µM, first compound 0.0316 µM
[14] = second compound 0.316 µM, first compound 0.1 µM
[15] = second compound 0.316 µM, first compound 0.316 µM
[16] = second compound 0.316 µM, first compound 1 µM
[17] = second compound 0.316 µM, first compound 3.16 µM
[18] = second compound 0.316 µM, first compound 10 µM
[19] = second compound 1 µM, first compound 0.0316 µM
[20] = second compound 1 µM, first compound 0.1 µM
[21] = second compound 1 µM, first compound 0.316 µM
[22] = second compound 1 µM, first compound 1 µM
[23] = second compound 1 µM, first compound 3.16 µM
[24] = second compound 1 µM, first compound 10 µM
[25] = second compound 3.16 µM, first compound 0.0316 µM
[26] = second compound 3.16 µM, first compound 0.1 µM
[27] = second compound 3.16 µM, first compound 0.316 µM
[28] = second compound 3.16 µM, first compound 1 µM
[29] = second compound 3.16 µM, first compound 3.16 µM
[30] = second compound 3.16 µM, first compound 10 µM
[31] = second compound 10 µM, first compound 0.0316 µM
[32] = second compound 10 µM, first compound 0.1 µM
[33] = second compound 10 µM, first compound 0.316 µM
[34] = second compound 10 µM, first compound 1 µM
[35] = second compound 10 µM, first compound 3.16 µM
[36] = second compound 10 µM, first compound 10 µM
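Also: spheroids exposed to compounds for one week.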
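For viability, T/C in this document: 100% = vehicle DMSO treated spheroids.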

Question: What does the source list for `COc1ccc([C@@H](O)c2cc(-c3ncnc4cc(N5CCOCC5)ccc34)c(F)cc2Cl)nn1` + COC1C(OC(N)=O)C(O)C(Oc2ccc3c(O)c(NC(=O)c4ccc(O)c(CC=C(C)C)c4)c(=O)oc3c2C)OC1(C)C?
Answer: IC50 (second compound 0.0316 µM): > 10 µM; IC50 (second compound 0.1 µM): 9.81 µM; IC50 (second compound 0.316 µM): 9.58 µM; IC50 (second compound 1 µM): > 10 µM; IC50 (second compound 3.16 µM): > 10 µM; IC50 (second compound 10 µM): > 10 µM; viability, T/C [1]: 106%; viability, T/C [2]: 112%; viability, T/C [3]: 99.7%; viability, T/C [4]: 105%; viability, T/C [5]: 82.1%; viability, T/C [6]: 56.9%; viability, T/C [7]: 112%; viability, T/C [8]: 107%; viability, T/C [9]: 100%; viability, T/C [10]: 98.2%; viability, T/C [11]: 83.8%; viability, T/C [12]: 48.8%; viability, T/C [13]: 110%; viability, T/C [14]: 104%; viability, T/C [15]: 104%; viability, T/C [16]: 98.4%; viability, T/C [17]: 82.5%; viability, T/C [18]: 48.6%; viability, T/C [19]: 111%; viability, T/C [20]: 102%; viability, T/C [21]: 97.3%; viability, T/C [22]: 100%; viability, T/C [23]: 79.4%; viability, T/C [24]: 52.5%; viability, T/C [25]: 107%; viability, T/C [26]: 106%; viability, T/C [27]: 106%; viability, T/C [28]: 93.1%; viability, T/C [29]: 79.5%; viability, T/C [30]: 56.1%; viability, T/C [31]: 111%; viability, T/C [32]: 105%; viability, T/C [33]: 104%; viability, T/C [34]: 108%; viability, T/C [35]: 85.1%; viability, T/C [36]: 50.9%

Question: Which IC50 (second compound 0.0316 µM) does the source give for `CNCc1ccc(-c2[nH]c3cc(F)cc4c3c2CCNC4=O)cc1` + Cc1cccc(N(C)C(=O)C2C(O)CCN2c2nc(C)cc(C(F)(F)F)c2C#N)c1 here?
Answer: Its IC50 is over 10 µM.

Question: What about the IC50 (second compound 0.1 µM) of the same molecule?
Answer: Its IC50 is over 10 µM.

Question: What about the IC50 (second compound 0.316 µM) of the same molecule?
Answer: Its IC50 is over 10 µM.

Question: What about the IC50 (second compound 1 µM) of the same molecule?
Answer: Its IC50 is over 10 µM.

Question: And the IC50 (second compound 3.16 µM)?
Answer: Its IC50 is over 10 µM.

Question: What about the IC50 (second compound 10 µM) of the same molecule?
Answer: Its IC50 is over 10 µM.

Question: And the viability, T/C [1]?
Answer: Its viability, T/C is 107%.

Question: And the viability, T/C [2]?
Answer: The viability, T/C was 104%.

Question: And the viability, T/C [3]?
Answer: The viability, T/C was 107%.

Question: And the viability, T/C [4]?
Answer: The viability, T/C was 106%.

Question: What about the viability, T/C [5] of the same molecule?
Answer: The viability, T/C was 107%.

Question: What about the viability, T/C [6] of the same molecule?
Answer: Its viability, T/C is 107%.

Question: And the viability, T/C [7]?
Answer: Its viability, T/C is 108%.

Question: What about the viability, T/C [8] of the same molecule?
Answer: Its viability, T/C is 110%.

Question: And the viability, T/C [9]?
Answer: Its viability, T/C is 103%.

Question: And the viability, T/C [10]?
Answer: Its viability, T/C is 101%.

Question: And the viability, T/C [11]?
Answer: The viability, T/C was 106%.

Question: What about the viability, T/C [12] of the same molecule?
Answer: Its viability, T/C is 105%.

Question: What about the viability, T/C [13] of the same molecule?
Answer: The viability, T/C was 120%.

Question: What about the viability, T/C [14] of the same molecule?
Answer: Its viability, T/C is 104%.

Question: What about the viability, T/C [15] of the same molecule?
Answer: The viability, T/C was 104%.

Question: And the viability, T/C [16]?
Answer: Its viability, T/C is 105%.

Question: And the viability, T/C [17]?
Answer: Its viability, T/C is 113%.

Question: What about the viability, T/C [18] of the same molecule?
Answer: Its viability, T/C is 98.9%.

Question: And the viability, T/C [19]?
Answer: Its viability, T/C is 108%.

Question: What about the viability, T/C [20] of the same molecule?
Answer: The viability, T/C was 94.9%.

Question: And the viability, T/C [21]?
Answer: Its viability, T/C is 104%.

Question: What about the viability, T/C [22] of the same molecule?
Answer: The viability, T/C was 114%.

Question: And the viability, T/C [23]?
Answer: Its viability, T/C is 106%.

Question: And the viability, T/C [24]?
Answer: The viability, T/C was 107%.

Question: What about the viability, T/C [25] of the same molecule?
Answer: Its viability, T/C is 110%.

Question: What about the viability, T/C [26] of the same molecule?
Answer: Its viability, T/C is 96.5%.

Question: What about the viability, T/C [27] of the same molecule?
Answer: The viability, T/C was 102%.

Question: And the viability, T/C [28]?
Answer: The viability, T/C was 108%.

Question: And the viability, T/C [29]?
Answer: Its viability, T/C is 107%.

Question: And the viability, T/C [30]?
Answer: Its viability, T/C is 99.3%.

Question: What about the viability, T/C [31] of the same molecule?
Answer: Its viability, T/C is 109%.

Question: What about the viability, T/C [32] of the same molecule?
Answer: The viability, T/C was 95.2%.

Question: And the viability, T/C [33]?
Answer: Its viability, T/C is 104%.

Question: What about the viability, T/C [34] of the same molecule?
Answer: The viability, T/C was 101%.

Question: And the viability, T/C [35]?
Answer: The viability, T/C was 91.4%.

Question: And the viability, T/C [36]?
Answer: Its viability, T/C is 98.6%.
